# Experimental data from ChEMBL document CHEMBL1130829, “Inhibition of human cytomegalovirus protease N(o) with monocyclic beta-lactams” (Bioorg Med Chem Lett, 1998).
# Columns and labels:
# Neutrophil elastase = target: T1, Neutrophil elastase (Homo sapiens, UniProt P08246); experiment: Inhibitory activity against human leukocyte elastase protease(HLE)
# T1 sequence (P08246 whole entry): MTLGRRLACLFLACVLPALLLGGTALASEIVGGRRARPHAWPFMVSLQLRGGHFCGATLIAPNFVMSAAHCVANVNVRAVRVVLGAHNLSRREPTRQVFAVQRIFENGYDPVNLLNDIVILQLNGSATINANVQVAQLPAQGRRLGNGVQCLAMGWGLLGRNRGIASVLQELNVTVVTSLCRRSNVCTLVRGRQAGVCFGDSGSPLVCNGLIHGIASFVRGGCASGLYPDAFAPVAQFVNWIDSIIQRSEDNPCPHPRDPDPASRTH
# [1] = target: T2, Capsid scaffolding protein (Human cytomegalovirus (strain AD169) (HHV-5) (Human herpesvirus 5), UniProt P16753); experiment: Inhibitory activity against human cytomegalovirus (HCMV) protease; design: species or system Human herpesvirus 5 strain AD169
# T2 sequence (P16753 whole entry): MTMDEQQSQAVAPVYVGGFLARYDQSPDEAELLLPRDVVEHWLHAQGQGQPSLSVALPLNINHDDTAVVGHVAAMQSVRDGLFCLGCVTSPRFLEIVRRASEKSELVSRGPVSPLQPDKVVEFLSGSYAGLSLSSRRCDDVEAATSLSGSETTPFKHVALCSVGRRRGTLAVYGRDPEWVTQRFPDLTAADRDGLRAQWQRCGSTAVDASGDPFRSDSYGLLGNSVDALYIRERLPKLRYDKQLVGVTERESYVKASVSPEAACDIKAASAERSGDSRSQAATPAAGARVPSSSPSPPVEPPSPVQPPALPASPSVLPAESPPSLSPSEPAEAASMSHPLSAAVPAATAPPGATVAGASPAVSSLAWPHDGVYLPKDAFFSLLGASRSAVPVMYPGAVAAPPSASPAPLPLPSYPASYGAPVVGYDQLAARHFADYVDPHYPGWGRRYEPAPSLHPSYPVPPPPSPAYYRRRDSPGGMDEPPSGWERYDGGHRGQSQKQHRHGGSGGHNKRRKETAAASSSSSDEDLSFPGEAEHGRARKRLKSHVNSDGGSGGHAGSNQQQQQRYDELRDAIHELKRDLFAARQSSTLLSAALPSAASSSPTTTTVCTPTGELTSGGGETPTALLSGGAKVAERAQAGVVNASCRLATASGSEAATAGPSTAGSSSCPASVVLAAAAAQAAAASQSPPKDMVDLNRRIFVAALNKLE
# Chymotrypsinogen B = Chymotrypsinogen B (Homo sapiens, UniProt P17538); experiment: Inhibitory activity against alpha-chymotrypsin
# Cathepsin B = Cathepsin B (Homo sapiens, UniProt P07858); experiment: Inhibitory activity against Cathepsin B
# Sequence of Chymotrypsinogen B (P17538 34-164 limits assumed, other chains not shown): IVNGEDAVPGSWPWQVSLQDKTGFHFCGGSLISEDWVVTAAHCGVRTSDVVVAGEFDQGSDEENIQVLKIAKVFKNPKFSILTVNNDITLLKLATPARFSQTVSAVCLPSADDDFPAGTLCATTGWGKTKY
# Sequence of Chymotrypsinogen B (P17538 167-263 limits assumed, other chains not shown): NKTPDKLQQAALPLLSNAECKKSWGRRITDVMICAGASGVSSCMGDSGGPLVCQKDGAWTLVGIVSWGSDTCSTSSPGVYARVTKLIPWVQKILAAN
Structure (SMILES),IC50 (Neutrophil elastase) [µM],IC50 [1] [nM],IC50 (Chymotrypsinogen B) [µM],IC50 (Cathepsin B) [µM]
C[C@@H](NC(=O)N1C(=O)CC1SCc1ccc(CC(=O)OC(C)(C)C)cc1)c1ccccc1 (stereo partly drawn),> 75,75000,> 75,> 75
CC(C)C[C@@H](COC1CC(=O)N1C(=O)N[C@@H](C)c1ccccc1)NC(=O)[C@@H](NC(=O)OC(C)(C)C)C(C)(C)C (stereo partly drawn),> 75,300,> 75,> 75
C[C@@H](NC(=O)N1C(=O)CC1Sc1ccccc1)c1ccccc1 (stereo partly drawn),> 75,,> 75,> 75
CC[C@@H](NC(=O)N1C(=O)CC1SCc1ccccn1)c1ccccc1 (stereo partly drawn),> 75,,> 75,> 75
CC(C)C[C@@H](CSC1CC(=O)N1C(=O)NCc1ccccc1)NC(=O)[C@@H](NC(=O)OC(C)(C)C)C(C)(C)C (stereo partly drawn),> 75,,0.8,> 75
C[C@@H](NC(=O)N1C(=O)CC1SCc1cccnc1)c1ccccc1 (stereo partly drawn),> 75,,> 75,> 75
C[C@@H](NC(=O)N1C(=O)CC1SCc1ccncc1)c1ccccc1 (stereo partly drawn),> 75,,> 75,> 75
O=C1CC(SCc2ccccn2)N1C(=O)N[C@H](CO)c1ccccc1 (stereo partly drawn),> 75,,> 75,> 75
C[C@@H](NC(=O)N1C(=O)CC1SCc1ccccc1)c1ccccc1 (stereo partly drawn),> 75,2400,> 75,> 75
C[C@@H](NC(=O)N1C(=O)CC1SCc1ccccn1)c1ccccc1 (stereo partly drawn),> 75,,> 75,> 75
CC(C)C[C@@H](COC1CC(=O)N1C(=O)N[C@H](C)c1ccccc1)NC(=O)[C@@H](NC(=O)OC(C)(C)C)C(C)(C)C (stereo partly drawn),> 75,1400,> 75,> 75
CC(C)C[C@@H](COC1CC(=O)N1)NC(=O)[C@@H](NC(=O)OC(C)(C)C)C(C)(C)C (stereo partly drawn),,> 300000,,
O=C1CC(SCc2ccccn2)N1C(=O)NCCOCc1ccccc1 (stereo not drawn),> 75,6400,> 75,> 75
CC(C)C[C@@H](COC1CC(=O)N1C(=O)NCc1ccccc1)NC(=O)[C@@H](NC(=O)OC(C)(C)C)C(C)(C)C (stereo partly drawn),> 75,,8.3,> 75
C[C@@H](NC(=O)N1C(=O)CC1SCCc1ccccc1)c1ccccc1 (stereo partly drawn),> 75,,> 75,> 75
CC[C@@H](NC(=O)N1C(=O)[C@@H](C)[C@@H]1SCc1ccccn1)c1ccccc1,< 0.15,,1.7,> 75
C[C@@H](NC(=O)N1C(=O)CC1SCC(=O)c1ccccc1)c1ccccc1 (stereo partly drawn),> 75,,> 75,> 75
CC[C@H](NC(=O)N1C(=O)CC1SC[C@H](CC(C)C)NC(=O)[C@@H](NC(=O)CC(C)(C)C)C(C)(C)C)c1ccccc1 (stereo partly drawn),> 75,70,> 75,> 75
